What was measured:
IFNγ = assay: LPS-induced IFNγ release from THP-1 Lucia monocytes (multiplex electrochemiluminescence); assay type: cell-based, human; conditions: for IC50: Homo sapiens, THP-1; for IC50 / Imax, IFNγ release: LPS 50 ng/mL, 24 h; for Imax, IFNγ release: concentration–response
Procedure: LXA41 and all of the tested sLXms were dissolved in ethanol and further diluted in a culture medium (final ethanol concentration 0.1%; equivalent concentrations were used as the vehicle control). Prior to in vitro experiments, THP-1-Lucia NF-κB cells were harvested and plated at 1 × 10^5 cells/well on 96-well plates and left to settle in the incubator at 37 °C, 95% humidity, and 5% CO2, in 0.1% FBS-containing media, pretreated for 30 min with increasing doses of LXA41, sLXms (from 10^–12 to 10^–6 M), or appropriate controls, followed by stimulation with 50 ng/mL LPS for 24 h. Untreated (Unt) or vehicle-treated (Veh) cells were used as negative controls; 1 pM (1R)-5, the (1R)-epimer of the benzo-mimetic, was used as a positive control for any aromatic mimetic; and, finally, we compared the observed effects to the conventional glucocorticoid dexamethasone (Dex) treatment, at 1 μM.
After 24 h of exposure to LXA41, sLXms, or vehicle, followed by LPS stimulation (50 ng/mL), as described above, THP-1-Lucia NF-κB-cell supernatants were collected and cleared by centrifugation. Concentrations of IFN-γ, IL-1β, IL-6, IL-8, IL-10, IL-12p70, and TNF-α in culture supernatants were assessed by electro-chemi-luminescent detection, using a commercially available human 96-well plate “multiplex” (several analytes in the same well) kit for tissue culture samples, according to the manufacturers’ guidelines.
(§1) The “coding” of the heat-map indicates the arbitrary criteria to assign points to each single PD component (efficacy = Imax or Emax; potency = IC50 or EC50; slope = HS) to generate a final (aggregate) relative PD score. If a single PD component was greater than the reference level (x > 1), then the single-component relative score was arbitrarily set to +1 (light green) or +2 (dark green). If a single PD component was equal to the reference level (x = 1), then the single-component relative score was arbitrarily set to 0 (gray). If a single PD component was smaller than the reference level (x < 1), then the single-component relative score was arbitrarily set to −1 (light red) or −2 (dark red). If the curve of a single PD component was best fitting to a flat line (x = 0), then the single-component relative score was arbitrarily set to −4 (purple) (Table S1).

THP-1 LUCIA monocytes = assay: In vitro safety study: Safety index (Si), activity versus toxicity; assay type: cell-based, human; conditions: for IC50: Homo sapiens, THP-1, highest IC50 among the LPS-challenged assays (NF-κB activity, cytokine, LDH release), read-out: Extrinsic Activity hIC50; for Safety Index TC50/IC50: ratio of intrinsic TC50 to extrinsic hIC50
Procedure: A postanalysis “safety study” was conducted on all QNX-sLXms. For each tested compound, we calculated an in vitro “Safety index” (Si) by relating its “anti-inflammatory half-maximal activity” (the highest dose among the IC50 of the extrinsic LPS-challenged phenotype: NF-κB activity, proinflammatory cytokine, and LDH release) to its intrinsic “toxicity” (expressed as the relative half-maximal LDH-associated cytotoxicity). The generated Si is potentially predictive of a translational “therapeutic” range: the higher the Si, the safer the molecule is. As summarized in Table S4, Si values from all tested compounds fall in a broad range (7–50).

ALX/FPR2 receptor = target: T1, ALX/FPR2 receptor (Homo sapiens, UniProt P25090); assay: Intracellular calcium flux in FPR2+/Gαq+ stably transfected HEK-293; assay type: cell-based; conditions: for Emax: HEK293, % delta calcium signal relative to peak of full agonist (1), 10 pM–100 nM, read-out: Efficacy Emax (%)
T1 construct: host or cells: HEK-293, stably double-transfected FPR2+/Gαq+
T1 sequence (P25090 1-351): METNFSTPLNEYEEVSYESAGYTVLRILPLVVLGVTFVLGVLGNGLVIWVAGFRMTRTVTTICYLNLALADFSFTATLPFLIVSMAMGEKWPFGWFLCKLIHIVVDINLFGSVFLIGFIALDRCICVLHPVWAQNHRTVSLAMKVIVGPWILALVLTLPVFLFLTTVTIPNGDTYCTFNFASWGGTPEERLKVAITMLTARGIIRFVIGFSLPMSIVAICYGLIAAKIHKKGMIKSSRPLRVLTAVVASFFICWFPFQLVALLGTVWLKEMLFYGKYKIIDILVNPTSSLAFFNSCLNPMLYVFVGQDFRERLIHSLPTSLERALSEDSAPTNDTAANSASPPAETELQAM
Procedure: HEK-293-transfected and wt cell lines were cultured in Dulbecco’s modified Eagle’s medium (DMEM Glutamax, 4 mM L-glu and 4.50 g/L glucose—Gibco, Ireland) supplemented with heat-inactivated (30 min at 56C) 10% (v/v) FBS (Invitrogen, U.K.), 50 U penicillin, and 50 μg of streptomycin (Invitrogen, U.K.). As stably double-transfected FPR2^+/Gαq^+ HEK-293 cells were resistant to Geneticin and Hygromycin, these were used as selective antibiotics (500 and 100 μg/mL, respectively) to maintain the stable double transfection with the ALX/FPR2 receptor and the Gαq subunit coupled to it. Immediately prior to calcium measurement, fluorescently labeled cells were treated with 10^–11/–9/–7M LXA41 or sLXms using an injection system coupled to the fluorescence reader.
To explore the mechanism of action through which the sLXm lead compound exerts the effects seen here, its interaction with the ALX/FPR2 receptor was investigated and agonist-induced intracellular calcium transients were measured using an engineered cell line stably overexpressing the ALX/FPR2 receptor and the Gαq subunit coupled to it (Figure S6). Wild-type HEK cells were used as controls, to verify the specificity of the agonism toward ALX/FPR2, as previously reported.[36] Briefly, prior to cell plating, sterile 96-well plates (black-sided with optically clear glass flat bottoms) were PDL-coated overnight. Subsequently, 2 × 10^5 wild-type cells and overexpressed cells/well were cultured for 18 h in DMEM complete media (containing Ca^2+ and Mg^2+) to facilitate adherence prior to labeling with Fluo-4 dye. After 1 h of incubation at 37 °C with Fluo-4, cells were gently washed twice and placed in 100% Hanks’ balanced salt solution (HBSS; 37 °C) before reading the fluorescence (485/535 nm), using a spectrophotometer conjugated with an injection system (Clariostar BMG LABTECH plate reader), allowing addition to the cells of controls ([…], 2 nM Wp, a synthetic ALX/FPR2 agonist) or experimental treatments [10 pM, 1 nM, and 100 nM LXA41 or (R)-6].
During calcium flux measurement, the kinetic steps involved were the following: the baseline fluorescent signal was measured for 20 s, followed by 100 s immediately after agonist injection. Subsequently, 2% Triton-X-100 was added to lyse the cells (monitoring for 20 s the maximal release of calcium ions in the extracellular environment) and, finally, 25 mM tetraacetic acid (EGTA) was added to chelate calcium ions (monitoring for additional 20 s the minimal detection of calcium ions in the extracellular environment) (Figure S7).
as §1

For `CCCCCCC[C@H](O)c1nc2ccccc2nc1/C=C/[C@@H](O)[C@@H](O)CCCC(=O)OC` [(S)-8, Methyl (5S,6R,E)-5,6-Dihydroxy-8-(3-((S)-1-hydroxyoctyl)quinoxalin-2-yl)oct-7-enoate], the “PD score, IFNγ release” value (IFNγ; relative to LXA4 (1)) was “negative PD scores”, the IC50 (THP-1 LUCIA monocytes) was 0.01 nM and the “Safety Index TC50/IC50” value (THP-1 LUCIA monocytes) was 10.

`CCCCC[C@@H](O)c1c(/C=C/[C@@H](O)[C@@H](O)CCCC(=O)OC)nc(C)n1C` [Compound 5, imidazolo-LXA4] was tested, and the “Slope HS” value (ALX/FPR2 receptor) was 258, the Emax (ALX/FPR2 receptor) was 99 ± 17% and the “(Aggregate) Rel. PD Score” value (ALX/FPR2 receptor; relative to LXA4 (1)) was 2. The “(Single component) Rel. Score: Rel. Sl.” value (ALX/FPR2 receptor; relative to LXA4 (1)) was 2 (x ≥ 10), the “Efficacy Rel. Eff.” value (ALX/FPR2 receptor; relative to LXA4 (1)) was 0.99 and the “Potency Rel. Pot.” value (ALX/FPR2 receptor; relative to LXA4 (1)) was 1. For the same molecule, the “Rel. Slope” value (ALX/FPR2 receptor; relative to LXA4 (1)) was 1.72.

In the case of `CCCCC[C@H](O)/C=C/C=C\C=C\C=C\[C@@H](O)[C@@H](O)CCCC(=O)O` [Compound 1, LXA4], the IC50 (IFNγ) is reported as 1 pM, the “Imax, IFNγ release” value (IFNγ) is reported as 72 ± 4% and the “Slope HS” value (ALX/FPR2 receptor) is reported as 150. For the same molecule, the “type of agonism at ALX/FPR2” value (ALX/FPR2 receptor) was “full agonist”, the Emax (ALX/FPR2 receptor) was 100% and the “Efficacy Rel. Eff.” value (ALX/FPR2 receptor; relative to LXA4 (1)) was 1. For the same molecule, the “Potency Rel. Pot.” value (ALX/FPR2 receptor; relative to LXA4 (1)) was 1 and the “Rel. Slope” value (ALX/FPR2 receptor; relative to LXA4 (1)) was 1.

`CCCCC[C@@H](O)c1nc2ccccc2nc1/C=C/[C@H]1OC(C)(C)O[C@H]1CCCC(=O)OC` [(R)-17, Methyl 4-((4S,5R)-5-((E)-2-(3-((R)-1-Hydroxyhexyl)quinoxalin-2-yl)vinyl)-2,2-dimethyl-1,3-dioxolan-4-yl)butanoate] was tested, and the IC50 (THP-1 LUCIA monocytes) was 0.01 nM and the “Safety Index TC50/IC50” value (THP-1 LUCIA monocytes) was 10.

With `CCCCC[C@@H](O)c1nc2ccccc2nc1/C=C/[C@@H](O)[C@@H](O)CCCC(=O)OC` [(R)-6, Methyl (5S,6R,E)-5,6-Dihydroxy-8-(3-((R)-1-hydroxyhexyl)quinoxalin-2-yl)oct-7-enoate] the IC50 (IFNγ) was 1 pM, the “Imax, IFNγ release” value (IFNγ) was 62 ± 1% and the IC50 (THP-1 LUCIA monocytes) was 0.025 nM. The “Safety Index TC50/IC50” value (THP-1 LUCIA monocytes) was 20, the “Slope HS” value (ALX/FPR2 receptor) was 220 and the “type of agonism at ALX/FPR2” value (ALX/FPR2 receptor) was “equipotent partial agonist”. The “ALX/FPR2 activation lower than that induced by native LXA4” value (ALX/FPR2 receptor; both at 10 pM) was 40%, the “(Single component) Rel. Score: Rel. Eff.” value (ALX/FPR2 receptor; relative to LXA4 (1)) was -2 and the “(Single component) Rel. Score: Rel. Sl.” value (ALX/FPR2 receptor; relative to LXA4 (1)) was 1 (1 < x < 10). The “Efficacy Rel. Eff.” value (ALX/FPR2 receptor; relative to LXA4 (1)) was 0.61, the “Potency Rel. Pot.” value (ALX/FPR2 receptor; relative to LXA4 (1)) was 1 and the “Rel. Slope” value (ALX/FPR2 receptor; relative to LXA4 (1)) was 1.46.

— article PMC8279484 (Journal of Medicinal Chemistry, 2021)
